Source: patent US9102665B2, “Cysteinyl leukotriene antagonists” (Sun Pharma Advanced Research Company Ltd., priority 2011, dated 2015)

Biological target: T1, Leukotriene, Cysteinyl CysLT1 (Cavia porcellus, UniProt Q2NNR5)
T1 construct: from tissue; host or cells: guinea pig lung membrane
T1 sequence (Q2NNR5 1-340): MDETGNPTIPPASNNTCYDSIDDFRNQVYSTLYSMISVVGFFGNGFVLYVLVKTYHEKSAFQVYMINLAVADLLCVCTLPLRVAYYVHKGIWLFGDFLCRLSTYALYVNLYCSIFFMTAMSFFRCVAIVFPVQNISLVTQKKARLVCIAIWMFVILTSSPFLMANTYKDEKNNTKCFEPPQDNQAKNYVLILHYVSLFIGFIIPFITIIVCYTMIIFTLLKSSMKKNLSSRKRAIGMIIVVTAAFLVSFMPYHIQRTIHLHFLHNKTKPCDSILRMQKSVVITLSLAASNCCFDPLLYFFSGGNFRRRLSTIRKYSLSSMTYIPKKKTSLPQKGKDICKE
Assay: receptor radio-ligand-binding assay (Tritiated LTD4 as the ligand), Guinea pig lung membrane
Settings: 0.5 h, 0.2 nM 3H LTD4, Guinea pig lung membrane; for inhibition at 0.001 µM: 1 nM test compound, read-out: % Inhbition (in nM) 1; for inhibition at 0.003 µM: 3 nM test compound, read-out: % Inhbition (in nM) 3; for inhibition at 0.01 µM: 10 nM test compound, read-out: % Inhbition (in nM) 10
Method: The primary in-vitro biological screening for the compounds carried-out involving receptor radio-ligand-binding assay (Tritiated LTD4 as the ligand) by known methods described in literature [a). Mong et al. European Journal of Pharmacology (102); 1984 1-11b). Jones et al; Journal of Physiology & Pharmacology (73); 1994, 191-201 c). MDS Pharma Services: 250460 Leukotriene, Cysteinyl CysLT1]. Accordingly, Guinea pig lung membrane (100 ug) is incubated with 0.2 nM 3H LTD4 in presence of Reference Standard/Test item/Vehicle Control. Non Specific Binding is determined by incubating the membrane with 0.2 nM 3H LTD4 in presence of 1 uM of unlabeled LTD4. The samples are incubated at 26° C. for 30 minutes and are vacuum filtered on a membrane to separate the bound and free radioligand. The membrane is counted in a liquid scintillation counter to calculate the bound radioactivity. Specific Binding in Vehicle treated and Reference Standard/Test item treated set is compared to evaluate the % Inhibition values. Some of the compounds have shown >50% inhibition in the presence of ≦3 nano-molar concentration of the compounds of present invention as shown in the following table.

Row | Structure (SMILES) | inhibition at 0.001 µM [%] | inhibition at 0.003 µM [%] | inhibition at 0.01 µM [%]
1 | COc1ccc(C=CC2(c3cccc(/C=C/c4ccc5ccc(Cl)cc5n4)c3)OCCO2)c(C(=O)O)c1 [Ib.79] | 67 | 78 | 86
2 | CCN(CC)C(=O)c1ccccc1CCC(NC(=O)c1ccccc1C(=O)OC)c1cccc(/C=C/c2ccc3ccc(Cl)cc3n2)c1 (stereo not drawn) [Ia.48, N-[1-{3-[(E)-2-(7-Chloro-quinolin-2-yl)-vinyl]-phenyl}-3-(2-diethylcarbamoyl-phenyl)-propyl]-phthalamic acid methyl ester] | 35 | 56 | 65
3 | O=C(O)c1cc2c(cc1CCC1(c3cccc(/C=C/c4ccc5ccc(Cl)cc5n4)c3)OCCCO1)OCO2 [Ib.133] | 41 | 57 | 80
4 | C#CCOC(COc1ccccc1C(=O)O)c1cccc(/C=C/c2ccc3ccc(Cl)cc3n2)c1 (stereo not drawn) [Ia.127, 2-(2-{3-[(E)-2-(7-Chloro-quinolin-2-yl)-vinyl]-phenyl}-2-prop-2-ynyloxy-ethoxy)-benzoic acid] | 50 | 69 | 73
5 | O=C(O)c1cc(Cl)ccc1CCC1(c2cccc(/C=C/c3ccc4ccc(Cl)cc4n3)c2)OCCO1 [Ib.111] | 65 | 84 | 91
6 | CC(=O)OC(CSc1ccccc1C(=O)O)c1cccc(/C=C/c2ccc3ccc(Cl)cc3n2)c1 (stereo not drawn) [Ia.118, 2-(2-Acetoxy-2-{3-[(E)-2-(7-chloro-quinolin-2-yl)-vinyl]-phenyl}-ethylsulfanyl)-benzoic acid] | 33 | 46 | 52
7 | O=C(N[C@@H](CCc1ccccc1C(=O)O)c1cccc(/C=C/c2ccc3ccc(Cl)cc3n2)c1)c1cccs1 [Ia.69, 2-{(S)-3-{3-[(E)-2-(7-Chloro-quinolin-2-yl)-vinyl]-phenyl}-3-[(thiophene-2-carbonyl)-amino]-propyl}-benzoic acid] | 34 | 56 | 72
8 | C#CCO[C@H](COc1ccc(OC)cc1C(=O)O)c1cccc(/C=C/c2ccc3ccc(Cl)cc3n2)c1 [Ia.185, 2-((S)-2-{3-[(E)-2-(7-Chloro-quinolin-2-yl)-vinyl]-phenyl}-2-prop-2-ynyloxy-ethoxy)-5-methoxy-benzoic acid] | 57 | 60 | 84
9 | O=C(O)c1ccccc1OCC(OCCc1cccs1)c1cccc(/C=C/c2ccc3ccc(Cl)cc3n2)c1 (stereo not drawn) [Ia.143, 2-[2-{3-[(E)-2-(7-Chloro-quinolin-2-yl)-vinyl]-phenyl}-2-(2-thiophen-2-yl-ethoxy)-ethoxy]-benzoic acid] | 32 | 56 | 74
10 | CCOC(COc1ccc(OC)cc1C(=O)NS(C)(=O)=O)c1cccc(/C=C/c2ccc3ccc(Cl)cc3n2)c1 (stereo not drawn) [Ia.157, N-[2-(2-{3-[(E)-2-(7-Chloro-quinolin-2-yl)-vinyl]-phenyl}-2-ethoxy-ethoxy)-5-methoxybenzoyl]-methanesulfonamide] | 62 | 72 | 80
11 | CN(C(=O)c1ccco1)C(CCc1ccccc1C(=O)O)c1cccc(/C=C/c2ccc3ccc(Cl)cc3n2)c1 (stereo not drawn) [Ia.76, 2-{3-{3-[(E)-2-(7-Chloro-quinolin-2-yl)-vinyl]-phenyl}-3-[(furan-2-carbonyl)-methyl-amino]-propyl}-benzoic acid] | 37 | 61 | 67
12 | O=C(O)c1ccccc1C(=O)NC(CCc1ccccc1C(=O)N1CCCC1)c1cccc(/C=C/c2ccc3ccc(Cl)cc3n2)c1 (stereo not drawn) [Ia.73, N-{1-{3-[(E)-2-(7-Chloro-quinolin-2-yl)-vinyl]-phenyl}-3-[2-(pyrrolidine-1-carbonyl)-phenyl]-propyl}-phthalamic acid] | 40 | 67 | 72
13 | COc1cc(C(=O)O)c(CCC2(c3cccc(/C=C/c4ccc5ccc(Cl)cc5n4)c3)OCCO2)c(OC)c1OC [Ib.113] | 48 | 68 | 85
14 | CCOc1ccc(CCC2(c3cccc(/C=C/c4ccc5ccc(Cl)cc5n4)c3)OCCO2)c(C(=O)O)c1 [Ib.86] | 6 | 38 | 53
15 | CCN(CC)C(=O)c1ccccc1CCC(NC(=O)c1ccccc1C(=O)O)c1cccc(/C=C/c2ccc3ccc(Cl)cc3n2)c1 (stereo not drawn) [Ia.38, N-[1-{3-[(E)-2-(7-Chloro-quinolin-2-yl)-vinyl]-phenyl}-3-(2-diethylcarbamoyl-phenyl)-propyl]-phthalamic acid] | 0.3 | 51 | 69
16 | Cc1oc(=O)oc1COC(=O)c1ccccc1CCC1(c2cccc(/C=C/c3ccc4ccc(Cl)cc4n3)c2)OCCO1 [Ib.11] | 32 | 60 | 74
17 | C#CCOc1ccc(CCC2(c3cccc(/C=C/c4ccc5ccc(Cl)cc5n4)c3)OCCO2)c(C(=O)O)c1 [Ib.93] | 14 | 20 | 60
18 | COC(=O)c1ccccc1CCC(NC(=O)C1=C(C(=O)O)CCC1)c1cccc(/C=C/c2ccc3ccc(Cl)cc3n2)c1 (stereo not drawn) [Ia.80, 2-(3-[(2-Carboxy-cyclopent-1-enecarbonyl)-amino]-3-{3-[(E)-2-(7-chloro-quinolin-2-yl)-vinyl]-phenyl}-propyl)-benzoic acid methyl ester] | 43 | 64 | 65
19 | O=C(O)c1cc2c(cc1CCC1(c3cccc(/C=C/c4ccc5ccc(Cl)cc5n4)c3)OCCO1)OCCO2 [Ib.139] | 28 | 52 | 82
20 | CCOC(COc1ccc(OC)cc1C(=O)O)c1cccc(C#Cc2ccc3ccc(Cl)cc3n2)c1 (stereo not drawn) [Ia.199, 2-{2-[3-(7-Chloro-quinolin-2-ylethynyl)-phenyl]-2-ethoxy-ethoxy}-5-methoxy-benzoic acid] | 76 | 88 | 97
21 | O=C(O)c1ccccc1CCC(NC(=O)C(F)(F)F)c1cccc(/C=C/c2ccc3ccc(Cl)cc3n2)c1 (stereo not drawn) [Ia.12, 2-[3-{3-[(E)-2-(7-Chloro-quinolin-2-yl)-vinyl]-phenyl}-3-(2,2,2-trifluoro-acetylamino)-propyl]-benzoic acid] | 5 | 35 | 56
22 | O=C(O)c1ccccc1CCC1(c2cccc(/C=C/c3ccc4ccc(Cl)cc4n3)c2)OCCS1 (stereo not drawn) [Ib.59] | 64 | 74 | 97
23 | COc1cc(C(=O)O)c(CCC2(c3cccc(/C=C/c4ccc5ccc(Cl)cc5n4)c3)OCCCO2)cc1[N+](=O)[O-] [Ib.123] | 58 | 81 | 86
24 | COc1ccc(CCC2(c3cccc(/C=C/c4ccc5ccc(Cl)cc5n4)c3)OCCO2)c(C(=O)O)c1 [Ib.67] | 72 | 86 | 89
25 | O=C(c1ccccc1CCC1(c2cccc(/C=C/c3ccc4ccc(Cl)cc4n3)c2)OCCO1)N1CCCC1 [Ib.36, {2-[2-(2-{3-[(E)-2-(7-Chloro-quinolin-2-yl)-vinyl]-phenyl}-[1,3]-dioxolan-2-yl)-ethyl]-phenyl}-pyrrolidin-1-yl-methanone] | 49 | 91 | 99
26 | CC(ON=C(CCc1ccccc1C(C)(C)O)c1cccc(/C=C/c2ccc3ccc(Cl)cc3n2)c1)C(=O)O (stereo not drawn) [Ib.148] | 20 | 16 | 31
27 | COc1ccc(CCC2(c3cccc(/C=C/c4ccc5ccc(Cl)cc5n4)c3)OCCO2)c(-c2nnn[nH]2)c1 [Ib.135] | 56 | 77 | 86
28 | O=C(O)c1ccccc1SCC1(c2cccc(/C=C/c3ccc4ccc(Cl)cc4n3)c2)OCCO1 [Ib.42] | 31 | 41 | 49
29 | O=C(O)c1ccccc1CCC1(c2cccc(/C=C/c3ccc4ccc(Cl)cc4n3)c2)OCCO1 [Ib.4, 2-[2-(2-{3-[(E)-2-(7-Chloro-quinolin-2yl)-vinyl]phenyl}-[1,3]dioxolan-2yl)-ethyl]-benzoic acid] | 33 | 41 | 62
